Residue numbers refer to the chain shown, from its start. One block for each molecule: values may come before it.
Legend:
[1] = target: T1, BCDX2 (RAD51B-RAD51C-RAD51D-XRCC2) (Homo sapiens, UniProt O15315+O43502+O43543+O75771); assay: HPLC of nucleotides extracted from purified complex; assay type: binding; conditions: nucleotide co-purified with the complex; 2.5 mM Mg2+, pH 7.5; sites: RAD51B and RAD51C
T1 construct: four-subunit complex co-expressed in Sf9 cells; N-terminal TwinStrep-TEV tag on XRCC2 removed by TEV protease

[2] = target: T1, BCDX2 (RAD51B-RAD51C-RAD51D-XRCC2); assay: cryo-EM structure ([…] Å and […] Å); assay type: binding; conditions: Mg2+, sample vitrified with ADP.AlFx or ADP.BeFx
[3] = target: T2, BCDX2 (RAD51B-RAD51C-RAD51D-XRCC2) (Homo sapiens, UniProt O15315+O43502+O43543+O75771, O15315:K114A, form not given); assay: HPLC of nucleotides extracted from purified complex; assay type: binding; conditions: RAD51B Walker A mutant; nucleotide co-purified with the complex; 2.5 mM Mg2+, pH 7.5
T2 construct: four-subunit complex co-expressed in Sf9 cells; N-terminal TwinStrep-TEV tag on XRCC2 removed by TEV protease

[4] = target: T2, BCDX2 (RAD51B-RAD51C-RAD51D-XRCC2); assay: as above; assay type: binding; conditions: RAD51B Walker A mutant; nucleotide co-purified with the complex; 2.5 mM Mg2+, pH 7.5; remark: listed apart in the source
[5] = target: T3, BCDX2 (RAD51B-RAD51C-RAD51D-XRCC2) (Homo sapiens, UniProt O15315+O43502+O43543+O75771, O15315:E144A, form not given); assay: ATPase assay, alpha-32P-ATP, TLC; assay type: biochemical; conditions: RAD51B catalytic glutamate mutant; 15 µM ATP, 1 µM complex, 2.5 mM Mg2+, pH 7.5, 37 °C
T3 construct: four-subunit complex co-expressed in Sf9 cells; N-terminal TwinStrep-TEV tag on XRCC2 removed by TEV protease

[6] = target: T4, BCDX2 (RAD51B-RAD51C-RAD51D-XRCC2) (Homo sapiens, UniProt O15315+O43502+O43543+O75771, O15315:E144A/O43502:E161A, form not given); assay: HPLC of nucleotides extracted from purified complex; assay type: binding; conditions: RAD51B and RAD51C catalytic glutamate double mutant; 2.5 mM Mg2+, pH 7.5
T4 construct: four-subunit complex co-expressed in Sf9 cells; N-terminal TwinStrep-TEV tag on XRCC2 removed by TEV protease

[7] = target: T1, BCDX2 (RAD51B-RAD51C-RAD51D-XRCC2); assay: as above; assay type: binding; conditions: nucleotide co-purified with the complex; 2.5 mM Mg2+, pH 7.5
[8] = target: T5, BCDX2 (RAD51B-RAD51C-RAD51D-XRCC2) (Homo sapiens, UniProt O15315+O43502+O43543+O75771, O43502:E161A, form not given); assay: as above; assay type: binding; conditions: RAD51C catalytic glutamate mutant; 2.5 mM Mg2+, pH 7.5
T5 construct: four-subunit complex co-expressed in Sf9 cells; N-terminal TwinStrep-TEV tag on XRCC2 removed by TEV protease

B(AF647)CDX2 = target: T6, B(AF647)CDX2 (Homo sapiens, UniProt O15315;O43502;O75771;O43543 1-345+=GGGSGGGDSLEFIASKLA;1-376;1-328;1-280, internal_change); assay: bulk FRET; high FRET; RAD51B near 3' end; FA: protein in 25 mM HEPES pH 7.5, 10% glycerol, 2.5 mM MgCl2, 0.25 mM TCEP, 150 mM NaCl mixed 1:1 with oligo in HMT buffer, 50 mM NaCl (final ~100 mM NaCl, 5%); conditions: protein: recombinant; TwinStrep-TEV on XRCC2 not cleaved; copies: 1;1;1;1; label: 3'-Cy3
T6 sequence 1: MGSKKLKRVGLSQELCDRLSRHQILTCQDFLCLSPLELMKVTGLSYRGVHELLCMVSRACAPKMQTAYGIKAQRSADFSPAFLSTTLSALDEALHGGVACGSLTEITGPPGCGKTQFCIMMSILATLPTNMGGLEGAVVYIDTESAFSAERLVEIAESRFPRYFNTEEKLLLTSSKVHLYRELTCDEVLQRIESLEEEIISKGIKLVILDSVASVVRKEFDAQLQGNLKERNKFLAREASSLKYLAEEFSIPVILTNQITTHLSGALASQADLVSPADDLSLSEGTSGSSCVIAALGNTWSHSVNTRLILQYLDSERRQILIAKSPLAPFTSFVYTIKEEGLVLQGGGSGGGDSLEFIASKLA
T6 sequence 2: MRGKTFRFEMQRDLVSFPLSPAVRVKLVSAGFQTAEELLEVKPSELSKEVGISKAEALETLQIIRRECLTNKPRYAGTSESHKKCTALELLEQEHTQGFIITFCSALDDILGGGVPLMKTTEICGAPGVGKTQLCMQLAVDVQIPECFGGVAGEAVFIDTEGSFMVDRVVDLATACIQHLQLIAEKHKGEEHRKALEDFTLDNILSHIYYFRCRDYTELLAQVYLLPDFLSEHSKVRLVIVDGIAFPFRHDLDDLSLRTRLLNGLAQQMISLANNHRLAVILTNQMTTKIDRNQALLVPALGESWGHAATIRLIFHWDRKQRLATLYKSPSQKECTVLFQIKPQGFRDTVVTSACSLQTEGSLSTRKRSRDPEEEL
T6 sequence 3: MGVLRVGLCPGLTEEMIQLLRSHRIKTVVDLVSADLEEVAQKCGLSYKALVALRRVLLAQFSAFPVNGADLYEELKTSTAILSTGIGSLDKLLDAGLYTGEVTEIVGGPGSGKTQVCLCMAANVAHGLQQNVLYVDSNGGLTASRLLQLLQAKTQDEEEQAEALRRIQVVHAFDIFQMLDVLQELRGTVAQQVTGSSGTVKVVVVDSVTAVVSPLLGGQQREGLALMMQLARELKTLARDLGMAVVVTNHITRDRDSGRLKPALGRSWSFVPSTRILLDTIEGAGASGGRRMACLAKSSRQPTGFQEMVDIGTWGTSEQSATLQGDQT
T6 sequence 4: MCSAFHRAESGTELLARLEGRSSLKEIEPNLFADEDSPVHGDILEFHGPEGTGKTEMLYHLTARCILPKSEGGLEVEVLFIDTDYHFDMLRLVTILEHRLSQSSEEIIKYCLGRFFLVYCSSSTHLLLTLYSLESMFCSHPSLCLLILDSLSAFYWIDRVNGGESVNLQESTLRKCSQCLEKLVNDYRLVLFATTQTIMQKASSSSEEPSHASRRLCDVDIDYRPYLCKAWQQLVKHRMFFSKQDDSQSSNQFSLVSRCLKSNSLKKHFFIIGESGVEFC

BCD(R221A)X2 = target: T7, BCD(R221A)X2 (Homo sapiens, UniProt O15315;O43502;O75771;O43543 1-345;1-376;1-328;1-280, R221A); assay: fluorescence anisotropy; 1 mM ATP; minimal effect; FA: protein in 25 mM HEPES pH 7.5, 10% glycerol, 2.5 mM MgCl2, 0.25 mM TCEP, 150 mM NaCl mixed 1:1 with oligo in HMT buffer, 50 mM NaCl (final ~100 mM NaCl, 5%); conditions: protein: recombinant; tags: N-terminal TwinStrep-TEV on XRCC2, cleaved; copies: 1;1;1;1; label: 5'-FAM
T7 sequence 1: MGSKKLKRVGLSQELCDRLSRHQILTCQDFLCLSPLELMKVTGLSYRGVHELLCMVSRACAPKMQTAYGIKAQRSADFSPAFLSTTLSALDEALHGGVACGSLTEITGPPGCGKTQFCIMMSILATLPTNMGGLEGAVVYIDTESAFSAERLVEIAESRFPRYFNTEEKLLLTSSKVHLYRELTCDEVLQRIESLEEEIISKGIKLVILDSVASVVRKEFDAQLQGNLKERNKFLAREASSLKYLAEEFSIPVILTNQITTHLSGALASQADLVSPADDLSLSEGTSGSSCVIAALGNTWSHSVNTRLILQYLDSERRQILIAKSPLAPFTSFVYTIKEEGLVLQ
T7 sequence 2: T6 sequence 2
T7 sequence 3: T6 sequence 3 with R221A
T7 sequence 4: T6 sequence 4

B(R217A)CDX2 = target: T8, B(R217A)CDX2 (Homo sapiens, UniProt O15315;O43502;O75771;O43543 1-345;1-376;1-328;1-280, R217A); assay: fluorescence anisotropy; 1 mM ATP; similar to WT; FA: protein in 25 mM HEPES pH 7.5, 10% glycerol, 2.5 mM MgCl2, 0.25 mM TCEP, 150 mM NaCl mixed 1:1 with oligo in HMT buffer, 50 mM NaCl (final ~100 mM NaCl, 5%); conditions: protein: recombinant; tags: N-terminal TwinStrep-TEV on XRCC2, cleaved; copies: 1;1;1;1; label: 5'-FAM
T8 sequence 1: T7 sequence 1 with R217A
T8 sequence 2: T6 sequence 2
T8 sequence 3: T6 sequence 3
T8 sequence 4: T6 sequence 4

B(R231A)CDX2 = target: T9, B(R231A)CDX2 (Homo sapiens, UniProt O15315;O43502;O75771;O43543 1-345;1-376;1-328;1-280, R231A); assay: as above; conditions: protein: recombinant; tags: N-terminal TwinStrep-TEV on XRCC2, cleaved; copies: 1;1;1;1; label: 5'-FAM
T9 sequence 1: T7 sequence 1 with R231A
T9 sequence 2: T6 sequence 2
T9 sequence 3: T6 sequence 3
T9 sequence 4: T6 sequence 4

BCDX2(AF647) = target: T10, BCDX2(AF647) (Homo sapiens, UniProt O15315;O43502;O75771;O43543 1-345;1-376;1-328;1-280); assay: bulk FRET; high FRET; XRCC2 near 5' end; FA: protein in 25 mM HEPES pH 7.5, 10% glycerol, 2.5 mM MgCl2, 0.25 mM TCEP, 150 mM NaCl mixed 1:1 with oligo in HMT buffer, 50 mM NaCl (final ~100 mM NaCl, 5%); conditions: protein: recombinant; copies: 1;1;1;1; label: 5'-Cy3
T10 sequence 1: T7 sequence 1
T10 sequence 2: T6 sequence 2
T10 sequence 3: T6 sequence 3
T10 sequence 4: T6 sequence 4

T2 sequence (O15315 1-345 K114A, form open, one chain of several): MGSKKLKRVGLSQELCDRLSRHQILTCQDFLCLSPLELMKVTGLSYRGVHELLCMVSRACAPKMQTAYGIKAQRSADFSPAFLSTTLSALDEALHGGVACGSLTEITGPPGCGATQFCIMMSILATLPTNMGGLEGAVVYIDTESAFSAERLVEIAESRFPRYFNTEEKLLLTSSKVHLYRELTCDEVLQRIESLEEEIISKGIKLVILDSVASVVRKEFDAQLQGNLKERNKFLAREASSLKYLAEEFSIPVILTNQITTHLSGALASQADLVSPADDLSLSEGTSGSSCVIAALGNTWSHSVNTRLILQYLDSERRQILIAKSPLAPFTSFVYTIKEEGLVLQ
T5 sequence (O43502 whole entry E161A, form open, one chain of several): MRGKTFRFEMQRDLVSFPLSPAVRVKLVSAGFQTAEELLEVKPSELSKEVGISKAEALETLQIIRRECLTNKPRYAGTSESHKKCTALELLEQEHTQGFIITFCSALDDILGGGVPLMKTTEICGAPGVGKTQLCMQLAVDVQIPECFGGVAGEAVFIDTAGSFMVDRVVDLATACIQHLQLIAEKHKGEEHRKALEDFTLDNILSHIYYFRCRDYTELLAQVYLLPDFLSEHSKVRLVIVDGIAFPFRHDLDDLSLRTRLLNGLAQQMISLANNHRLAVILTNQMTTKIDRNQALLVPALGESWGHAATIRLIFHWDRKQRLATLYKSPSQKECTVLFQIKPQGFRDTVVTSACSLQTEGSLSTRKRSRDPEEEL
T3 sequence (O15315 1-345 E144A, form open, one chain of several): as the sequence (O15315 1-345 K114A, form open, one chain of several) above, with A114K, E144A counted along it
T4 sequence (O15315 1-345 E144A, form open, one chain of several): as the sequence (O15315 1-345 K114A, form open, one chain of several) above, with A114K, E144A counted along it
T4 sequence (O43502 whole entry E161A, form open, one chain of several): as the sequence (O43502 whole entry E161A, form open, one chain of several) above

nt of ADP bound per complex [1]: 1.9 ± 0.1 nt per complex
nt of ADP bound per complex [3]: 1.2 ± 0.1 nt per complex
Molecule: Nc1ncnc2c1ncn2[C@@H]1O[C@H](COP(=O)(O)OP(=O)(O)O)[C@@H](O)[C@H]1O [ADP]
cryo-EM structure (2.2 Å and 3.4 Å) ([2]; site: RAD51C nucleotide site): RAD51D and XRCC2 bound ATP whereas RAD51C bound ADP

nt of ATP bound per complex [4]: 1.8 ± 0.1 nt per complex
% reduction of ATPase activity relative to wild-type [5]: ~ 50%
nt of ATP bound per complex [7]: 2.1 ± 0.2 nt per complex
Molecule: Nc1ncnc2c1ncn2[C@@H]1O[C@H](COP(=O)(O)OP(=O)(O)OP(=O)(O)O)[C@@H](O)[C@H]1O [ATP]
cryo-EM structure (2.2 Å and 3.4 Å) ([2]; sites: RAD51D and XRCC2 nucleotide sites, co-purified nucleotide): RAD51D and XRCC2 bound ATP whereas RAD51C bound ADP
HPLC of nucleotides extracted from purified complex [6]: all nucleotide binding sites were fully occupied with ATP
HPLC of nucleotides extracted from purified complex [8]: all nucleotide binding sites were fully occupied with ATP

B1: dN15nt-Cy3-3' (ssDNA)
DNA: TATCGAATCCGTCTA
binding result (B(AF647)CDX2): binds

B2: FAM-dN15nt (ssDNA)
DNA: TATCGAATCCGTCTA
binding result (BCD(R221A)X2): binds
binding result (B(R217A)CDX2): binds
binding result (B(R231A)CDX2): binds

B3: 5'-Cy3-dN15nt (ssDNA)
DNA: TATCGAATCCGTCTA
binding result (BCDX2(AF647)): binds
